Assay results taken from the NIST ThermoML archive (doi:10.1016/j.jct.2008.06.009).

Test: xn = mol fraction of the nth substance listed
Settings: Liquid, Bellows volumetry

N [ammonia] + O
mass density [kg/m3]
Settings	x1 = 0.1048	x1 = 0.2046	x1 = 0.3807	x1 = 0.5565	x1 = 0.7008	x1 = 0.801	x1 = 0.9102	x1 = 1
450 K, 10000 kPa	843.9	796.9	708.1	608.5	–	–	–	–
450 K, 20000 kPa	850.4	804.3	718.8	625.9	534.7	458.5	–	–
450 K, 30000 kPa	856.6	811	728.1	639.8	557.7	495.6	422	355.3
450 K, 40000 kPa	862.7	817.8	736.8	651.6	575.2	519.2	457.5	403.7
450 K, 50000 kPa	868.5	823.8	744.9	662.2	589.4	537.4	481.3	433.4
450 K, 60000 kPa	873.9	829.6	751.5	671.3	601.8	552.2	499.7	455.2
450 K, 70000 kPa	879.1	835.4	758.3	680.1	612.5	564.9	514.8	472.6
450 K, 80000 kPa	884.2	840.9	765.1	687.8	622.2	576	527.7	487.4
450 K, 90000 kPa	889.2	845.9	771.1	695.3	631.2	586.2	539.1	500.2
450 K, 100000 kPa	893.9	850.6	777.1	702.2	639.2	595.2	549.2	511.7
450 K, 120000 kPa	902.7	860.3	788.1	714.8	654	611.5	566.9	531.4
450 K, 140000 kPa	911.3	868.9	798.6	726.2	666.9	625.9	582.2	548.2
450 K, 160000 kPa	919.5	877.1	807.9	736.6	678.7	638.7	595.6	563.1
450 K, 180000 kPa	927	885.1	817.2	746.2	689.4	650.1	607.8	576.3
450 K, 200000 kPa	934.3	892.2	825.3	755.2	699.3	660.9	618.7	588.2
500 K, 10000 kPa	782.5	728.2	–	–	–	–	–	–
500 K, 20000 kPa	792.5	740.4	641.7	517	–	–	–	–
500 K, 30000 kPa	801.3	751.1	658.5	551.1	447.5	–	–	–
500 K, 40000 kPa	809.6	760.6	672.4	574	487.8	422	–	–
500 K, 50000 kPa	817.3	769.5	684.3	591.7	514.1	456.2	–	350.9
500 K, 60000 kPa	824.3	777.5	695.3	606.4	534.1	480.7	426.9	384.9
500 K, 70000 kPa	831.3	785.1	704.8	619	550.6	499.8	450	410.1
500 K, 80000 kPa	837.7	792.1	713.9	630.1	564.5	515.8	468.5	430.2
500 K, 90000 kPa	843.7	798.6	721.8	640.2	576.7	529.6	484.1	446.9
500 K, 100000 kPa	849.7	805	729.7	649.4	587.6	541.6	497.6	461.5
500 K, 120000 kPa	860.7	816.7	743.7	665.7	606.7	562.5	520.1	485.8
500 K, 140000 kPa	870.8	827.5	756.6	679.9	623.1	580.1	538.9	505.9
500 K, 160000 kPa	880.6	837.4	768.3	692.9	637.4	595.3	555	523.1
500 K, 180000 kPa	889.4	846.7	779.3	704.5	650.4	608.9	569.2	538.3
500 K, 200000 kPa	897.9	855.4	789.2	715	662.1	621.2	581.9	551.9
